# Key:
# [1] = test system: IFNβ, CXCL9, CXCL10, IFNγ; serum cytokines; assay: Cytokine levels after subcutaneous injection in naïve mice; assay type: in vivo, C57BL/6 mice; settings: 20 μg free, four hours
# Method: To compare in vivo activity of free STING agonist and STING agonist-loaded exosomes beyond intratumoral dosing, naïve C57BL/6 mice were injected subcutaneously with PBS, exosomes, 20 μg of free 3-3 cAIMPdFSH or 0.2 μg 3-3 cAIMPdFSH loaded in PTGFRN-overexpressing exosomes. Four hours post-injection, lymph nodes, spleens, livers, and serum were collected and cytokine levels were measured.
# A20 lymphoma cells = assay: CIVO intratumoral microinjection, cleaved caspase 3 staining; assay type: in vivo, BALB/cAnNHsd mice
# Method: All experiments in mice were approved by IACUC Board of Presage Biosciences, Seattle, Wash. (Protocol number PR-001) and were performed at Presage in accordance with relevant guidelines and regulations. All relevant procedures were performed under anesthesia and all efforts were made to minimize pain and suffering. Female BALB/cAnNHsd mice (Envigo) with an average weight of 18 gm were used for experiments at 5-7 weeks of age. For generating A20 allografts, mice were inoculated with 1 million A20 cells in 100 μl inoculation volume.
# CIVO intra-tumoral microinjections were performed as described in Klinghoffer et al. (2016) Science Translational Medicine. Briefly, mice (n=6 per time point, 4 and 24 hours) were enrolled in microinjection studies when implanted tumors reached the following approximate dimensions: 14 mm (length), 10 mm (width) and 7 mm (depth). […]
# Images of every cell from each tissue section stained were captured by digital, automated, high-resolution whole-tissue scanning (3D Histech Panoramic 250 Flash). Tumor responses were quantified from image files from each tissue section using Presage's custom CIVO Analyzer image analysis platform. […] In order to mitigate the influence of pre-existing necrosis on biomarker measurements, injection sites that fall within largely acellular tumor regions are excluded prior to quantitative analysis. […]
# [2] = test system: peritoneal cells and splenocytes; assay: Immune cell activation (CD86) in peritoneum and spleen 24 hours after intraperitoneal dose; assay type: in vivo, C57BL/6 mice; settings: 20 μg single IP dose
# Method: A second experiment similar to the previous study was carried out with single-dose IP administration, and extended to 24 hours. Peritoneal cells and splenocytes were isolated from treated mice, and cell activation was measured by detection of CD86.
# [3] = test system: CD8+ T-cells, macrophages, and dendritic cells; assay: Live CD45+ cell populations in B16F10 tumors 24 hours post-injection; assay type: in vivo, mice; settings: 20 μg intratumoral
# Method: Constitutive activation of the STING pathway results in robust pro-inflammatory signaling and may be toxic to cells and tissues (N Engl J Med. 2014 Aug. 7; 371(6): 507-518). Non-selective delivery of STING agonists in a tumor microenvironment may result in a robust IFNβ response, but if response is too strong or originates in undesired cell populations, effector cells such as CD8^+ T-cells may be killed or otherwise attenuated. B16F10 melanoma tumors were injected with PTGFRN-overexpressing exosomes labeled with Alexa Fluor™ 488 and removed one hour post-injection. Tumor-infiltrating lymphocytes were purified and measured for fluorescence at 488 nm to track exosome uptake. Only ˜20% of T-cells engulfed exosomes, while ˜90% and ˜70% of macrophages and dendritic cells, respectively, engulfed exosomes (FIG. 51A). […] 24 hours post-injection, the tumors were isolated, homogenized, and live CD45^+ cell populations were counted. […] Non-selective delivery of high doses of STING agonists therefore may attenuate desirable immune stimulatory responses.
# STING pathway = STING pathway activation after intraperitoneal or intratumoral dose in B16F10 tumor-bearing mice; assay type: in vivo, C57BL/6 mice; settings: 20 μg single IP dose
# Method: Five groups of C57BL/6 mice (n=4 mice per group) were inoculated subcutaneously with 5×10^5 B16F10 murine melanoma cells. Eight days post-inoculation the mice were injected intraperitoneally (IP) with a single dose of either PBS, 20 μg ML RR-S2, 0.2 μg ML RR-S2, 0.2 μg ML RR-S2 loaded in PTGFRN-overexpressing exosomes (Exo STING IP), or intratumorally (IT) with a single dose of 0.2 μg ML RR-S2 loaded in PTGFRN-overexpressing exosomes (Exo STING IT). The exosome-encapsulated STING agonist formulations were loaded and quantitated as described in Example 1.
SMILES,"IFNβ gene expression in lymph nodes, spleens, livers [1]","cleaved caspase 3 (CC3) (A20 lymphoma cells; high dose free (printed 2 g), four and 24 hours)",cleaved caspase 3 (CC3) (A20 lymphoma cells; low dose free (printed 200 ng)),peritoneal cell activation (CD86) [2],spleen immune cell activation (CD86) [2],"CD8+ T-cells, macrophages, and dendritic cells in tumor [3]","IFNβ expression in tumor, pancreas and spleen (STING pathway)"
"Nc1ncnc2c1ncn2[C@@H]1O[C@@H]2COP(=O)(S)O[C@H]3[C@@H](F)[C@H](n4cnc5c(=O)[nH]cnc54)O[C@@H]3COP(O)(=S)O[C@H]2[C@H]1F (stereo partly shown) [3-3 cAIMPdFSH, 3′3′-cAIMPdFSH]",significantly elevated,,,,,,
Nc1ncnc2c1ncn2[C@@H]1O[C@@H]2COP(O)(=S)O[C@@H]3C(O)[C@@H](COP(O)(=S)O[C@H]2[C@H]1O)O[C@H]3n1cnc2c(N)ncnc21 (stereo partly shown) [ML RR-S2 CDA],,dramatically increased at four and 24 hours,modest,"activation of peritoneal B cells, macrophages, monocytes and conventional dendritic cells (cDCs)",moderate levels of immune cell activation,dramatically reduced compared to the other groups,"induced IFNβ expression in the tumor, pancreas, and spleen above the PBS-treated group"
